Where a name gives a salt, the structure may show the parent alone.
Columns and labels:
human DNA polymerase γ = molecular target: T1, human DNA polymerase γ (Homo sapiens, UniProt P54098); assay: Homogeneous time-resolved fluorescence human DNA polymerase γ assay; type: biochemical; conditions: triphosphates, room temperature 30 minutes
T1 construct: purchased Gentaur
T1 sequence (P54098 1-1239): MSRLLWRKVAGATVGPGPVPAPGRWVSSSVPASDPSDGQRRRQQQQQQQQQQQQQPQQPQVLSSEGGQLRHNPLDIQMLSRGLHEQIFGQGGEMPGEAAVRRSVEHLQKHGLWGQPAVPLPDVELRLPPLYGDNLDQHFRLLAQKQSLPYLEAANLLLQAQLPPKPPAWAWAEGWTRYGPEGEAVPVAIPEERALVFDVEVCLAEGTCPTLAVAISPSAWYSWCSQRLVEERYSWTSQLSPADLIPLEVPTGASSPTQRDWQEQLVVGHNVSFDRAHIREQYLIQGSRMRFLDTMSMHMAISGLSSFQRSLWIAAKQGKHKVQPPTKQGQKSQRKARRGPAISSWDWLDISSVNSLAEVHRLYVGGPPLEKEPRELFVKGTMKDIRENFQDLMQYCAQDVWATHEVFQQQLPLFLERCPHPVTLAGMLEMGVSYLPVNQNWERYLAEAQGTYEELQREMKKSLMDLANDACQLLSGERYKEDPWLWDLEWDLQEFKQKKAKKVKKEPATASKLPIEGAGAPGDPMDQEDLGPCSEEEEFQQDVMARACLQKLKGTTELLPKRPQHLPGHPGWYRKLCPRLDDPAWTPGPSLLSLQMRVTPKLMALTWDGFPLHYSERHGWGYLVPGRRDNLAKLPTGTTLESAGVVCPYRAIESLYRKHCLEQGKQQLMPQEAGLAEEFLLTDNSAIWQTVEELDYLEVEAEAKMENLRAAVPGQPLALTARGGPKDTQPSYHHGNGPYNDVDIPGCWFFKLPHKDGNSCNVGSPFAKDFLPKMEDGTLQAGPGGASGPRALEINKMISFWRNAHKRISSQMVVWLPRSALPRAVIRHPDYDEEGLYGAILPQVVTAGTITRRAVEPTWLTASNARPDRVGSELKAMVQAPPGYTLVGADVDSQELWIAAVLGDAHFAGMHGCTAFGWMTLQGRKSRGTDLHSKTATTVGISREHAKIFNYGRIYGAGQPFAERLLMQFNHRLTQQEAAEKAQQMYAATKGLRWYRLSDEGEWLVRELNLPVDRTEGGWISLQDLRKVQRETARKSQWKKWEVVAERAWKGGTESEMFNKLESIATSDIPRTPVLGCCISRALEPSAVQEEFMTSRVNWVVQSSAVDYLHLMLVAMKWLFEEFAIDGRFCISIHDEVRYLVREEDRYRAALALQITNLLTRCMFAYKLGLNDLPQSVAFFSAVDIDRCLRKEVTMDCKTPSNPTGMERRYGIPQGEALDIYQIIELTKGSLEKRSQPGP
Protocol: Exemplary compounds were tested for ability to inhibit human DNA polymerase γ using a homogeneous time-resolved fluorescence (HTRF) assay. Off-target inhibition of DNA polymerase γ by NRTIs can result in undesired mitochondrial toxicity. Assay procedures and results are described below.
The human DNA polymerase γ homogeneous time-resolved fluorescence (HTRF) assay was performed with recombinant human DNA polymerase γ protein (Gentaur) in a 384-well format. Test compound was serially diluted in water and further diluted in the assay buffer (28 mM Tris-HCl, 14 mM NaCl, 0.56 mM MgCl2, 0.011% Triton X-100, 0.11 mg/ml BSA, 1.1 mM DTT, pH 8.1). The serially diluted compound was mixed with polymerase γ, 10 nM of pre-annealed template/biotin-primer pair (synthesized at Geneway Biotechnology), 100 nM of Fluorescein-12-dCTP fluorescent probe (PerkinElmer), and 10 μM dGTP/dATP/dTTP (ThermoFisher Scientific) in the assay buffer. The template/biotin-primer sequences were as follows:
(§1) After incubating at room temperature for 30 minutes, the detection reagent (5 mM EDTA with streptavidin-terbium cryptate, Cisbio Bioassay) in the PPI buffer (Cisbio Bioassay) was added, and the mixture was incubated at room temperature for 60 minutes. At the end of the incubation, fluorescence was read at ex/em=337/485 nm and ex/em=337/520 nm on an Envision 2104 plate reader (PerkinElmer). The fluorescence ratio at 520/485 nm was used for the calculation. […] The IC50 was calculated by fitting the compound dose inhibition curve with a 4-parameter non-linear regression equation.

[1] = molecular target: T2, LINE1 reverse transcriptase (recombinant MBP-tagged LINE1 protein (238-1061)) (Homo sapiens, UniProt O00370); assay: Homogeneous time-resolved fluorescence (HTRF) LINE1 RT assay; type: biochemical; conditions: triphosphate analogs, LINE1 enzyme 64 ng/well, 25° C. 60 minutes
T2 construct: recombinant MBP-tagged LINE1 protein (238-1061); made in house
Protocol: Exemplary triphosphate analogs were tested for the ability to inhibit LINE1 reverse transcriptase using a homogeneous time-resolved fluorescence (HTRF) assay. Assay procedures and results are described below.
The LINE1 reverse transcriptase homogeneous time-resolved fluorescence (HTRF) assay was performed with recombinant MBP-tagged LINE1 protein (238-1061) (generated and purified according to procedures in Dai L. et al. BMC Biochemistry 2011; 12:18) in a 384-well format. Test compound was serially diluted in DMSO and further diluted in the assay buffer (50 mM Tris-HCl, 50 mM KCl, 10 mM MgCl2, 10 mM DTT, pH 8.1) to achieve a final DMSO concentration of 1%. The serially diluted compound was mixed with 64 ng/well of LINE1 enzyme, 5 nM of pre-annealed template/biotin-primer pair (synthesized at Generay Biotechnology), 10 nM of Fluorescein-12-dCTP fluorescent probe (PerkinElmer), and 1 μM dGTP/dATP/dTTP (ThermoFisher Scientific) in the assay buffer. The template/biotin-primer sequences were as follows:
as §1, with “25° C.” for “room temperature”, “60” for “30”, “(20” for “(5”, “30” for “60”

SMILES | IC50 (human DNA polymerase γ) | IC50 [1]
CC[C@]1(COP(=O)(O)OP(=O)(O)OP(=O)(O)O)O[C@@H](n2ccc(N)nc2=O)C[C@@H]1O [44-TP] | > 300 µM | 108 nM
Nc1ccn([C@H]2C[C@H](O)[C@@](CCl)(COP(=O)(O)OP(=O)(O)OP(=O)(O)O)O2)c(=O)n1 [Compound 2-TP] | ≤ 50 µM | 47.5 nM
Nc1nc(=O)n([C@H]2C[C@H](O)[C@@](CCl)(COP(=O)(O)OP(=O)(O)OP(=O)(O)O)O2)cc1F [Compound 14-TP, ((2R,3S,5R)-5-(4-amino-5-fluoro-2-oxopyrimidin-1(2H)-yl)-2-(chloromethyl)-3-hydroxytetrahydrofuran-2-yl)methyl tetrahydrogen triphosphate TEA Salt] | 50 to 100 µM | 272 nM
C#C[C@]1(COP(=O)(O)OP(=O)(O)OP(=O)(O)O)O[C@@H](n2ccc(N)nc2=O)[C@@H](F)[C@@H]1O [Compound 35-TP] | 200 to 300 µM | 13.7 nM
Nc1ccn([C@@H]2O[C@](CCl)(COP(=O)(O)OP(=O)(O)OP(=O)(O)O)[C@@H](O)[C@@H]2F)c(=O)n1 [Compound 40-TP] | 200 to 300 µM | 831 nM
C=C[C@]1(COP(=O)(O)OP(=O)(O)OP(=O)(O)O)O[C@@H](n2ccc(N)nc2=O)C[C@@H]1O [Compound 43-TP] | 200 to 300 µM | 81 nM
Nc1nc(=O)n([C@@H]2O[C@](CCl)(COP(=O)(O)OP(=O)(O)OP(=O)(O)O)[C@@H](O)[C@@H]2F)cc1F [Compound 67-TP] | 200 to 300 µM | 430 nM

Reference: patent publication US20230295212A1 (ROME Therapeutics, Inc., priority 2022, published 2023)
